Legend:
Human plasma kallikrein = molecular target: T1, Human plasma kallikrein (Homo sapiens, UniProt P03952); test: Plasma Kallikrein Assay; type: biochemical; conditions: purified Human plasma kallikrein 0.5 nM, substrate Acetyl-K-P-R-AFC, pH 7.4
T1 construct: yields a heavy chain (371 amino acids) and a light chain (248 amino acids); purchased Enzyme Research Laboratories

human factor XIa = human factor XIa (Homo sapiens, UniProt P03951); test: Factor XIa Assay; type: biochemical; conditions: human factor XIa 0.04 nM, substrate GPR-AFC, 30 min pre-incubation at 25° C., pH 7.4; read-out: FXIa IC50
Experimental: The effectiveness of a compound of the present invention as an inhibitor of Coagulation factor XIa can be determined using a relevant purified serine protease, and an appropriate synthetic substrate. The rate of hydrolysis of the chromogenic or fluorogenic substrate by the relevant serine protease was measured both in the absence and presence of compounds of the present invention. Assays were conducted at rt or at 37° C. […] A decrease in the rate of fluorescence change in the presence of inhibitor is indicative of enzyme inhibition. Such methods are known to one skilled in the art. The results of this assay are expressed as the half-maximal inhibitory concentrations (IC50), or the inhibitory constant, Ki.
Compounds were pre-incubated for 30 min at 25° C. with human (0.04 nM) factor XIa in 50 mM HEPES buffer with 150 mM sodium chloride, 5 mM calcium chloride, 0.1% PEG 8000, pH 7.4. factor XIa enzymatic activity was determined by addition of the substrate glycine-proline-arginine-7-amido-4-trifluoromethylcoumarin (GPR-AFC) and measurement of the fluorescence at 400/505 nm after a 60 min incubation at 25° C. The % inhibition for each data point was calculated from the data and analyzed using the log (inhibitor) vs. response four parameters equation to determine the half-maximal inhibitory concentrations (IC50). The IC50 were converted to equilibrium inhibitory constants (Ki) using the Cheng-Prusoff equation.

human factor XIa, sequence (P03951 388-625 limits assumed): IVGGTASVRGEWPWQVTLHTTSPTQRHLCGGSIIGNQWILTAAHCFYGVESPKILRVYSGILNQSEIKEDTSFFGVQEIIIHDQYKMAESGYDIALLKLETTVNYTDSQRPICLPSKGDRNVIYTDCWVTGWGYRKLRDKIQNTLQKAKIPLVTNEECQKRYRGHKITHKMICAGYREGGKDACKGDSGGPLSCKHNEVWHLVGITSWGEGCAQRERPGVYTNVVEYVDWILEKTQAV
human factor XIa, sequence (P03951 19-387 partner limits assumed): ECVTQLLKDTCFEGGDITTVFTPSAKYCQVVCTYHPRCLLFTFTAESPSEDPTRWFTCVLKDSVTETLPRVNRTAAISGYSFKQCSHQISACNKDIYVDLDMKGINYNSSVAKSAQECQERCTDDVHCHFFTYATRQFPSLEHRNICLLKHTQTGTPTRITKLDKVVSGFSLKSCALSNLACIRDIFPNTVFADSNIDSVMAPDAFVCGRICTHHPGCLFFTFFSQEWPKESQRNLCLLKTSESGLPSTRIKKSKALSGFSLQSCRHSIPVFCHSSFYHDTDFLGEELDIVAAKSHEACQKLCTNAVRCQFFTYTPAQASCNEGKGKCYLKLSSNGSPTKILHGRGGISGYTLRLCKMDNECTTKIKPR
T1 sequence (P03952 391-638 limits assumed): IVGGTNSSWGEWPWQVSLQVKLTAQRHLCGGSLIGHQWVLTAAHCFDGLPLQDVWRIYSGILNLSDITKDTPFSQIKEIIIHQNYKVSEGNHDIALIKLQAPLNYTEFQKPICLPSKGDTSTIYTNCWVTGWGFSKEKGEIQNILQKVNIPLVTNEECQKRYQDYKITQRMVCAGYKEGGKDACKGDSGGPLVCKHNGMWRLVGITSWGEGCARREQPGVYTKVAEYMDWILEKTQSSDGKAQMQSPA
T1 sequence (P03952 20-390 partner limits assumed): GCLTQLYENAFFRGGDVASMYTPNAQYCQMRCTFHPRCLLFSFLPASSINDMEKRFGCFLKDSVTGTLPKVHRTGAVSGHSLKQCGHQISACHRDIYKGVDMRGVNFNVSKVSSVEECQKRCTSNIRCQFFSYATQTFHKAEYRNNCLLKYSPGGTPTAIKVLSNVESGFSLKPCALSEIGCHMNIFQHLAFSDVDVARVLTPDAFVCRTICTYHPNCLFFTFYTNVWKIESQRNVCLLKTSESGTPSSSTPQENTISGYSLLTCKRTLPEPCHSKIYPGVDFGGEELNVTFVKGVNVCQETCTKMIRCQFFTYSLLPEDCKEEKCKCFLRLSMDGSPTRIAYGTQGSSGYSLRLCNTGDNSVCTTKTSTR

Row | SMILES | IC50 (Human plasma kallikrein) | IC50 (human factor XIa)
1 | C[C@@H](c1cnc(N2C[C@@H]3C[C@@H]3[C@@H]2CO)nc1)n1cc(NC(=O)c2cncc(-c3c(C(F)F)ccc(Cl)c3F)n2)cn1 (single isomer, unassigned) [Example 76, 6-(3-Chloro-6-(difluoromethyl)-2-fluorophenyl)-N-(1-((S or R)-1-(2-((1S,2R,5R or 1R,2S,5S)-2-(hydroxymethyl)-3-azabicyclo[3.1.0]hexan-3-yl)pyrimidin-5-yl)ethyl)-1H-pyrazol-4-yl)pyrazine-2-carboxamide] | 5.4 nM | 4640 nM
2 | O=C(Nc1cnn(Cc2cnc(N3C[C@H]4C[C@H]4[C@H]3CN3CC(O)(C(F)(F)F)C3)nc2)c1)c1cncc(-c2c(C(F)F)ccc(Cl)c2F)n1 [Example 155, 6-(3-Chloro-6-(difluoromethyl)-2-fluorophenyl)-N-(1-((2-((1R,2S,5S)-2-((3-hydroxy-3-(trifluoromethyl)azetidin-1-yl)methyl)-3-azabicyclo[3.1.0]hexan-3-yl)pyrimidin-5-yl)methyl)-1H-pyrazol-4-yl)pyrazine-2-carboxamide] | 1.8 nM | 3680 nM
3 | CO[C@H]1CN(C[C@@H]2CCN2c2ncc(C(C)n3cc(NC(=O)c4cncc(-c5c(C(F)F)ccc(Cl)c5F)n4)cn3)cn2)C[C@@H]1O (stereo partly drawn) [Example 165, 6-(3-Chloro-6-(difluoromethyl)-2-fluorophenyl)-N-(1-(1-(2-((S)-2-(((3S,4S)-3-hydroxy-4-methoxypyrrolidin-1-yl)methyl)azetidin-1-yl)pyrimidin-5-yl)ethyl)-1H-pyrazol-4-yl)pyrazine-2-carboxamide] | 1.4 nM | 4270 nM
4 | O=C(Nc1cnn(Cc2cnc(N3CCCC3CN3CC[C@H](F)C3)nc2)c1)c1cncc(-c2c(C(F)F)ccc(Cl)c2F)n1 (stereo partly drawn) [Example 148, 6-(3-Chloro-6-(difluoromethyl)-2-fluorophenyl)-N-(1-((2-(2-(((S)-3-fluoropyrrolidin-1-yl)methyl)pyrrolidin-1-yl)pyrimidin-5-yl)methyl)-1H-pyrazol-4-yl)pyrazine-2-carboxamide] | 0.6 nM | 2930 nM
5 | O=C(Nc1cnn(Cc2cnc(N3CCC3)nc2)c1)c1nc(-c2c(C(F)F)ccc(Cl)c2F)cnc1C(F)F [Example 136, N-(1-((2-(Azetidin-1-yl)pyrimidin-5-yl)methyl)-1H-pyrazol-4-yl)-6-(3-chloro-6-(difluoromethyl)-2-fluorophenyl)-3-(difluoromethyl)pyrazine-2-carboxamide] | 8.6 nM | 838 nM
6 | COc1ccc(C(F)F)c(-c2cncc(C(=O)Nc3cnn(Cc4cnc(N5CCC5)nc4)c3)n2)c1F [Example 208, N-(1-((2-(Azetidin-1-yl)pyrimidin-5-yl)methyl)-1H-pyrazol-4-yl)-6-(6-(difluoromethyl)-2-fluoro-3-methoxyphenyl)pyrazine-2-carboxamide] | 33.9 nM | 827 nM
7 | O=C(Nc1cnn(Cc2cnc(N3CCCC3CCO)nc2)c1)c1cncc(-c2c(C(F)F)ccc(Cl)c2F)n1 (single isomer, unassigned) [Example 102, (S or R)-6-(3-Chloro-6-(difluoromethyl)-2-fluorophenyl)-N-(1-((2-(2-(2-hydroxyethyl)pyrrolidin-1-yl)pyrimidin-5-yl)methyl)-1H-pyrazol-4-yl)pyrazine-2-carboxamide] | 31.2 nM | 2250 nM
8 | O=C(Nc1cnn(Cc2cnc(N3CCC3)nc2)c1)c1cncc(-c2c(OC(F)F)ccc(Cl)c2F)n1 [Example 64, N-(1-((2-(Azetidin-1-yl)pyrimidin-5-yl)methyl)-1H-pyrazol-4-yl)-6-(3-chloro-6-(difluoromethoxy)-2-fluorophenyl)pyrazine-2-carboxamide] | 9.6 nM | 292 nM
9 | CC(c1cnc(N2C[C@H]3C[C@H]3C2C(=O)N(C)C)nc1)n1cc(NC(=O)c2cncc(-c3c(C(F)F)ccc(Cl)c3F)n2)cn1 (single isomer, unassigned) [Example 202, (1R,2S,5S or 1S,2R,5R)-3-(5-((R or S)-1-(4-(6-(3-Chloro-6-(difluoromethyl)-2-fluorophenyl)pyrazine-2-carboxamido)-1H-pyrazol-1-yl)ethyl)pyrimidin-2-yl)-N,N-dimethyl-3-azabicyclo[3.1.0]hexane-2-carboxamide] | 1 nM | 2260 nM
10 | CC(c1cnc(N2CC[C@H]2[C@@H](C)N2C[C@@H](O)[C@@H](O)C2)nc1)n1cc(NC(=O)c2cncc(-c3c(C(F)F)ccc(Cl)c3F)n2)cn1 (stereo partly drawn) [Example 187, 6-(3-Chloro-6-(difluoromethyl)-2-fluorophenyl)-N-(1-(1-(2-((S)-2-((R)-1-((3R,4S)-3,4-dihydroxypyrrolidin-1-yl)ethyl)azetidin-1-yl)pyrimidin-5-yl)ethyl)-1H-pyrazol-4-yl)pyrazine-2-carboxamide] | 1 nM | 3330 nM
11 | C[C@H](CO)NC[C@@H]1[C@@H]2C[C@@H]2CN1c1ncc(Cn2cc(NC(=O)c3cncc(-c4c(C(F)F)ccc(Cl)c4F)n3)cn2)cn1 [Example 143, 6-(3-Chloro-6-(difluoromethyl)-2-fluorophenyl)-N-(1-((2-((1R,2S,5S)-2-((((R)-1-hydroxypropan-2-yl)amino)methyl)-3-azabicyclo[3.1.0]hexan-3-yl)pyrimidin-5-yl)methyl)-1H-pyrazol-4-yl)pyrazine-2-carboxamide] | 0.4 nM | 528 nM

Next, values leading:

Row | IC50 (Human plasma kallikrein) | IC50 (human factor XIa) | SMILES
12 | 6.6 nM | 1350 nM | C[C@@H](c1cnc(N2CCC2)nc1)n1cc(NC(=O)c2cncc(-c3c(C(F)F)ccc(Cl)c3F)n2)cn1 [Example 5, (S)-N-(1-(1-(2-(Azetidin-1-yl)pyrimidin-5-yl)ethyl)-1H-pyrazol-4-yl)-6-(3-chloro-6-(difluoromethyl)-2-fluorophenvl)pyrazine-2-carboxamide]
13 | 24.4 nM | 820 nM | NC(=O)c1cc(N2CCC2)ncc1Cn1cc(NC(=O)c2cncc(-c3c(C(F)F)ccc(Cl)c3F)n2)cn1 [Example 206, N-(1-((6-(Azetidin-1-yl)-4-carbamoylpyridin-3-yl)methyl)-1H-pyrazol-4-yl)-6-(3-chloro-6-(difluoromethyl)-2-fluorophenvl)pyrazine-2-carboxamide]
14 | 23.1 nM | 1320 nM | C[C@H](c1cnc(N2CCC2)nc1)n1cc(NC(=O)c2cncc(-c3c(C(F)F)ccc(Cl)c3F)n2)cn1 (single isomer, unassigned) [Example 4]
15 | 3.9 nM | 639 nM | Cc1cc(N2CCC2)ncc1[C@H](C)n1cc(NC(=O)c2cncc(-c3c(C(F)F)ccc(Cl)c3F)n2)cn1 (single isomer, unassigned) [Example 66]
16 | 2.1 nM | 4210 nM | Cc1nc(N2CCC2)cnc1C(C)n1cc(NC(=O)c2cncc(-c3c(C(F)F)ccc(Cl)c3F)n2)cn1 (single isomer, unassigned) [Example 41, (S or R)-N-(1-(1-(5-(azetidin-1-yl)-3-methylpyrazin-2-yl)ethyl)-1H-pyrazol-4-yl)-6-(3-chloro-6-(difluoromethyl)-2-fluorophenyl)pyrazine-2-carboxamide]
17 | 4.2 nM | 458 nM | Cc1nc(N2CCC2)ncc1Cn1cc(NC(=O)c2cncc(-c3c(C(F)F)ccc(Cl)c3F)n2)cn1 [Example 8, N-(1-((2-(Azetidin-1-yl)-4-methylpyrimidin-5-yl)methyl)-1H-pyrazol-4-yl)-6-(3-chloro-6-(difluoromethyl)-2-fluorophenyl)pyrazine-2-carboxamide]
18 | 10.6 nM | 326 nM | Cc1ncc(-c2c(C(F)F)ccc(Cl)c2F)nc1C(=O)Nc1cnn(C(CO)c2cnc(N3CCC3)nc2)c1 (single isomer, unassigned) [Example 47, (R or S)-N-(1-(1-(2-(Azetidin-1-yl)pyrimidin-5-yl)-2-hydroxyethyl)-1H-pyrazol-4-yl)-6-(3-chloro-6-(difluoromethyl)-2-fluorophenyl)-3-methylpyrazine-2-carboxamide]
19 | 27 nM | 2720 nM | CC(c1cnc(N2CC3CC3C2)nc1)n1cc(NC(=O)c2cncc(-c3c(C(F)F)ccc(Cl)c3F)n2)cn1 (single isomer, unassigned) [Example 31, N-(1-((1S or 1R)-1-(2-(3-azabicyclo[3.1.0]hexan-3-yl)pyrimidin-5-yl)ethyl)-1H-pyrazol-4-yl)-6-(3-chloro-6-(difluoromethyl)-2-fluorophenyl)pyrazine-2-carboxamide]
20 | 1.3 nM | 478 nM | Cc1nc(C(C)n2cc(NC(=O)c3cncc(-c4c(C(F)F)ccc(Cl)c4F)n3)cn2)cnc1N1CCC1 (single isomer, unassigned) [Example 39, (S or R)-N-(1-(1-(5-(azetidin-1-yl)-6-methylpyrazin-2-yl)ethyl)-1H-pyrazol-4-yl)-6-(3-chloro-6-(difluoromethyl)-2-fluorophenyl)pyrazine-2-carboxamide]
21 | 10.2 nM | 1370 nM | Cc1cc(N2CCC2)ncc1Cn1cc(NC(=O)c2cncc(-c3c(C(F)F)ccc(Cl)c3F)n2)cn1 [Example 17, N-(1-((6-(Azetidin-1-yl)-4-methylpyridin-3-yl)methyl)-1H-pyrazol-4-yl)-6-(3-chloro-6-(difluoromethyl)-2-fluorophenyl)pyrazine-2-carboxamide]

Reference: patent US20230416227A1, “PLASMA KALLIKREIN INHIBITORS” (Merck Sharp & Dohme LLC, priority 2020, published 2023)
